Data as given in patent US8685974B2 (Bayer CropScience AG, priority 2009, dated 2014).
Values joined by “and” are separate entries in the source; they are usually repeats but may differ in a detail not shown here. Identical values can stand only once. Like-named read-outs stand apart in the source and are kept apart here. Marks after values point to notes of the source that are not given here.

How the values were obtained:
Alternaria solani = assay: Alternaria test (tomato) / protective; type: in vivo; settings: 500 ppm active compound, protective spray, evaluated 7 days after inoculation
How it was run: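 Young tomato plants sprayed protectively with compound formulated in DMF with alkylaryl polyglycol ether emulsifier and diluted in water to the application rate. After inoculation, plants held at 96% rel. humidity and 20° C. Efficacy scored 7 days post-inoculation: 0% equals untreated control, 100% no infection.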

Leptosphaeria nodorum = Leptosphaeria nodorum test (wheat) / protective; type: in vivo; settings: 500 ppm active compound, protective spray, evaluated 7-9 days after inoculation
Description: Leptosphaeria nodorum Test (Wheat)/Protective
Solvent: 49 parts by weight of N,N-dimethylformamide
Emulsifier: 1 part by weight of alkylaryl polyglycol ether
To produce a suitable preparation of active compound, 1 part by weight of active compound is mixed with the stated amounts of solvent and emulsifier, and the concentrate is diluted with water to the desired concentration.
To test for protective activity, young wheat plants are sprayed with the preparation of active compound at the stated application rate. […] The plants are then placed in a greenhouse at 90% rel. atmospheric humidity and a temperature of 22° C.
Evaluation is carried out 7-9 days after the inoculation. 0% means an efficacy which corresponds to that of the control, whereas an efficacy of 100% means that no infection is observed.

Fusarium graminearum = type: cell-based
Pyrenophora teres = assay: In vivo test on Pyrenophora teres (barley net blotch); settings: dose of 500 ppm; barley plants; grading 12 days after contamination
How it was run: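 Barley plants (Plaisant) grown at 12° C. sprayed at 1-leaf stage with compound in acetone/Tween/DMSO diluted in water; 24 h later inoculated with P. teres spores (12,000 spores/ml). Incubated 24 h at ~20° C., 100% RH, then 12 days at 80% RH; graded 12 days post-inoculation against untreated controls.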

[1] = pH 2.7

SMILES	efficacy (Alternaria solani)	efficacy (Leptosphaeria nodorum)	% Inhibition of fungal growth at 50 μM (Fusarium graminearum; 50 μM)	% Inhibition of DON/AcDON at 50 μM (Fusarium graminearum; 50 μM, 7 days at 28° C.)	protection (Pyrenophora teres)	log p [1]	% Inhibition of DON/AcDON at 50 μM (Fusarium graminearum)
CCC(C)n1cc(-c2ccnc(NC(=O)C(C)C)c2)c(-c2ccc(Cl)s2)n1 (stereo not drawn) [Example 234]	90%	80%	45%	96%	95%	3.63^[b]	–
CC(C)n1cc(-c2ccnc(NC(=O)C3CCC3)c2)c(-c2ccc(Cl)s2)n1 [Example 243]	90%	90%	31%	99%	95%	3.37^[b]	–
CCC(=O)Nc1cc(-c2cn(C(C)C)nc2-c2ccc(Cl)s2)ccn1 [Example 246]	95%	90%	91%	99%	100%	2.78^[b]	–
CC(C)n1cc(-c2ccnc(NC(=O)C3CC3)c2)c(-c2ccc(Cl)s2)n1 [Example 247]	95%	80%	91%	99%	100%	2.94^[b]	–
CCC(C)C(=O)Nc1cc(-c2cn(C(C)C)nc2-c2ccc(Cl)s2)ccn1 (stereo not drawn) [Example 249]	95%	80%	11%	99%	95%	3.61^[b]	–
CCC(C)C(=O)Nc1cc(-c2cn(CC)nc2-c2ccc(Cl)s2)ccn1 (stereo not drawn) [Example 252]	95%	70%	99%	99%	100%	3.13^[b]	–
CC(=O)Nc1cc(-c2cn(C(C)C)nc2-c2ccc(Cl)s2)ccn1 [Example 256]	100%	80%	100%	99%	100%	2.45^[b]	–
CC(C)C(=O)Nc1cc(-c2cn(C(C)C)nc2-c2ccc(Cl)s2)ccn1 [Example 257]	95%	90%	81%	99%	95%	3.21^[b]	–
CC(C)CC(=O)Nc1cc(-c2cn(C(C)C)nc2-c2ccc(Cl)s2)ccn1 [Example 258]	95%	70%	54%	94%	100%	3.63^[b]	–
CCC(=O)Nc1cc(-c2cn(CC)nc2-c2ccc(Cl)s2)ccn1 [Example 263]	95%	80%	100%	99%	90%	2.4^[b]	–
CCn1cc(-c2ccnc(NC(=O)C3CC3)c2)c(-c2ccc(Cl)s2)n1 [Example 264]	90%	80%	100%	99%	90%	2.52^[b]	–
CCC(=O)Nc1cc(-c2cn(C)nc2-c2ccc(Cl)s2)ccn1 [Example 278]	90%	80%	100%	98%	90%	2.05^[b]	–
Cn1cc(-c2ccnc(NC(=O)C3CC3)c2)c(-c2ccc(Cl)s2)n1 [Example 279]	80%	70%	100%	98%	95%	2.16^[b]	–
Cn1cc(-c2ccnc(NC(=O)CC3CC3)c2)c(-c2ccc(Cl)s2)n1 [Example 281]	90%	80%	100%	99%	90%	2.54^[b]	–
CCn1cc(-c2ccnc(NC(C)=O)c2)c(-c2ccc(Cl)s2)n1 [Example 284]	95%	80%	100%	99%	100%	2.1^[b]	–
CCn1cc(-c2ccnc(NC(=O)C(C)C)c2)c(-c2ccc(Cl)s2)n1 [Example 285]	95%	80%	90%	99%	95%	2.77^[b]	–
CCn1cc(-c2ccnc(NC(=O)CC(C)C)c2)c(-c2ccc(Cl)s2)n1 [Example 286]	90%	90%	68%	99%	80%	3.15^[b]	–
CC(=O)Nc1cc(-c2cn(C)nc2-c2ccc(Cl)s2)ccn1 [Example 287]	90%	80%	94%	99%	95%	1.79^[b]	–
CC(C)C(=O)Nc1cc(-c2cn(C)nc2-c2ccc(Cl)s2)ccn1 [Example 288]	90%	70%	92%	99%	95%	2.39^[b]	–
CC(=O)Nc1cc(-c2cnn(/C=C/F)c2-c2ccc(Cl)s2)ccn1 [Example 292]	90%	70%	45%	100%	95%	2.84^[b]	–
CC(=O)N(C(C)=O)c1cc(-c2cn(C(C)C)nc2-c2ccc(Cl)s2)ccn1 [Example 304]	95%	80%	87% and 90%	–	95%	3.33^[b]	100%
CCn1cc(-c2ccnc(N)c2)c(-c2ccc(Cl)s2)n1 [Example 307]	80% and 94%	78%	45%	80%	80% and 95%	1.54^[b]	–
CCC(C)n1cc(-c2ccncc2)c(-c2ccc(Br)s2)n1 (stereo not drawn) [Example 354]	90%	70%	97%	99%	95%	2.15^[b]	–
CC(C)n1cc(-c2ccncc2)c(-c2ccc(Br)s2)n1 [Example 387]	100%	90%	93%	99%	80%	1.88^[b]	–
